Assay results reported in ChEMBL document CHEMBL4507291 (2021).

Experiments:
[1] = molecular target: 5-hydroxytryptamine receptor 1B (Homo sapiens) (UniProt P28222); experiment: Inhibition of Serotonin (5-Hydroxytryptamine) 5-HT1B at 10 µM in the Eurofins-Panlabs radioligand binding assay (Eurofins_assay_271200); settings: Compound concentration 10.0 uM
[2] = test system: Tyrosine-protein kinase ABL1 (Homo sapiens), P00519 [E255K]; experiment: ABL1 E255K Kinase screen; settings: Compound concentration 1.0 uM
[3] = molecular target: T1, Ephrin type-B receptor 1 (Homo sapiens) (UniProt P54762); experiment: EPHB1 Kinase screen; settings: Compound concentration 1.0 uM
T1 sequence (whole entry): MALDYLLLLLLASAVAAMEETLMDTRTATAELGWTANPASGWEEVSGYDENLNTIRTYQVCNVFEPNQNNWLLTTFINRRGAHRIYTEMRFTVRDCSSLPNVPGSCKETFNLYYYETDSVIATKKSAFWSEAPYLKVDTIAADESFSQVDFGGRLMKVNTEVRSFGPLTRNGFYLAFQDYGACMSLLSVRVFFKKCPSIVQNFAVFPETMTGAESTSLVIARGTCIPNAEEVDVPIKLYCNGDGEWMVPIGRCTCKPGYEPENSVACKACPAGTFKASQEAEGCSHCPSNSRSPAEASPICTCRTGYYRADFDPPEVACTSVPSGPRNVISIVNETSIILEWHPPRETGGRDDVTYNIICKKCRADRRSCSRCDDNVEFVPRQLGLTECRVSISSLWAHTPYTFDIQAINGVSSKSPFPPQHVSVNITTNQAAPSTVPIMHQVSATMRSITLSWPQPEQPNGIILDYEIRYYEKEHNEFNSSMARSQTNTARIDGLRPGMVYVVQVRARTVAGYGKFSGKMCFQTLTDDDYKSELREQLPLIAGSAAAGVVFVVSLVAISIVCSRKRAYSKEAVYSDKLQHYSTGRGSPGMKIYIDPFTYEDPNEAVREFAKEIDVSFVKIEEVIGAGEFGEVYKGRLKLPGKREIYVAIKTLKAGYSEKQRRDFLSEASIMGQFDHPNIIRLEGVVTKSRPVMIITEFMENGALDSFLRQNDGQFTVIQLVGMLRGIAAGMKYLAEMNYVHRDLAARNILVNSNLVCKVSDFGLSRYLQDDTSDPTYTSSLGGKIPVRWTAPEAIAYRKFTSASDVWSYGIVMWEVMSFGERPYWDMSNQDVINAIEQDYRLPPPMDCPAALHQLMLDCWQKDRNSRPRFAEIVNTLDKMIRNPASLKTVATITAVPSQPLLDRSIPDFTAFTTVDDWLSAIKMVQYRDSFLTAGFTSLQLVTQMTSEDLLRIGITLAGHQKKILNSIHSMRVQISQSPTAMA

[4] = molecular target: Receptor tyrosine-protein kinase erbB-2 (Homo sapiens) (UniProt P04626); experiment: ERBB2 (HER2) Kinase screen; settings: Compound concentration 1.0 uM
[5] = molecular target: Tyrosine-protein kinase HCK (Homo sapiens) (UniProt P08631); experiment: HCK Kinase screen; settings: Compound concentration 1.0 uM
[6] = molecular target: T2, Mitogen-activated protein kinase kinase kinase 7 (Homo sapiens) (UniProt O43318); experiment: MAP3K7/MAP3K7IP1 (TAK1-TAB1) Kinase screen; settings: Compound concentration 1.0 uM
T2 sequence (whole entry): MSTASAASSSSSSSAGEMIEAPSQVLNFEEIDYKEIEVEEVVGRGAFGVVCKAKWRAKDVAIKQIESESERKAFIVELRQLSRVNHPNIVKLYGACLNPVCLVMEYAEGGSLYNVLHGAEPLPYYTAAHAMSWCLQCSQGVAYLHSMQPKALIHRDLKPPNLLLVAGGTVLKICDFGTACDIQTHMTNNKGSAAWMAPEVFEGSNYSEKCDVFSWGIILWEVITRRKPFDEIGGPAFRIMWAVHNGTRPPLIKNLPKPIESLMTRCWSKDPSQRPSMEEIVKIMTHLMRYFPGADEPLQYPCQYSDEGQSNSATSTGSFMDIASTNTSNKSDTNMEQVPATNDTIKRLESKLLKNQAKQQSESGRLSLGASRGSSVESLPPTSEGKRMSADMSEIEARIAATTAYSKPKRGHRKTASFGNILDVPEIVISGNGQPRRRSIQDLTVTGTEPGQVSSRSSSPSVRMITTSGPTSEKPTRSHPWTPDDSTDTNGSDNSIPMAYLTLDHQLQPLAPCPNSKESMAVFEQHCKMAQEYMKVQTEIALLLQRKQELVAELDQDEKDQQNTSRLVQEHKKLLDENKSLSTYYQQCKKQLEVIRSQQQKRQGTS

[7] = molecular target: Protein-tyrosine kinase 6 (Homo sapiens) (UniProt Q13882); experiment: PTK6 (Brk) Kinase screen; settings: Compound concentration 1.0 uM
[8] = molecular target: Ribosomal protein S6 kinase alpha-2 (Homo sapiens) (UniProt Q15349); experiment: RPS6KA2 (RSK3) Kinase screen; settings: Compound concentration 1.0 uM
[9] = molecular target: SRSF protein kinase 1 (Homo sapiens) (UniProt Q96SB4); experiment: SRPK1 Kinase screen; settings: Compound concentration 1.0 uM
[10] = molecular target: T3, Peroxisome proliferator-activated receptor gamma (Homo sapiens) (UniProt P37231); experiment: (§1) PPARgamma Eurofins-Panlabs radioligand binding assay; set-up: ligand concentration 5 nM, non-specific ligand with concentration 0.5 µM L-797773, incubation time 18 h, incubation temperature 15 °C
T3 sequence (whole entry): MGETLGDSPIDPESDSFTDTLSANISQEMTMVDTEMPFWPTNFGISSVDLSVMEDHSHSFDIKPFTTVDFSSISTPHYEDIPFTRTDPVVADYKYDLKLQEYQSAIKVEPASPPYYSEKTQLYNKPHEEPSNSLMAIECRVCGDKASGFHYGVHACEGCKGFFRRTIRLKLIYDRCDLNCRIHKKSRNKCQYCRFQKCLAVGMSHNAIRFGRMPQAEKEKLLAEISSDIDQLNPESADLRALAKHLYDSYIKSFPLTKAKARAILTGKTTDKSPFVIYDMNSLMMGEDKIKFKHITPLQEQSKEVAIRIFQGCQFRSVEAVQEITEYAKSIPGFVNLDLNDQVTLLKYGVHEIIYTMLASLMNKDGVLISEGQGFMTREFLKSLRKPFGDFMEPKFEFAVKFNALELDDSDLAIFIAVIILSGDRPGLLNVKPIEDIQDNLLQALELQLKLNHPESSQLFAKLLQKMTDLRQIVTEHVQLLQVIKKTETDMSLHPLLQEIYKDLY

[11] = molecular target: Peroxisome proliferator-activated receptor gamma (Homo sapiens, UniProt P37231); experiment: as §1; set-up: ligand concentration 5 nM, non-specific ligand with concentration 0.5 µM L-797773, incubation time 18 h, incubation temperature 15 °C

Chain of 5-hydroxytryptamine receptor 1B (Homo sapiens) (P28222 whole entry): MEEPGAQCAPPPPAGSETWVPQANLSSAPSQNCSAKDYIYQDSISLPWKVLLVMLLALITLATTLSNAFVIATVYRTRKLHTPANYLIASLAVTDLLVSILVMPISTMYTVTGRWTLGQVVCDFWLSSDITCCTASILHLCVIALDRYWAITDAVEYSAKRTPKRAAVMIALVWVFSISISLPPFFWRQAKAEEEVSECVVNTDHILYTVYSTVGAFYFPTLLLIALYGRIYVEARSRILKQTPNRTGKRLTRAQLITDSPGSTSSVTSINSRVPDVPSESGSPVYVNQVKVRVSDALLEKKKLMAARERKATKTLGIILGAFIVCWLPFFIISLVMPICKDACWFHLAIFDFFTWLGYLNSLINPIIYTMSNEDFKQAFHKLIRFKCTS
Chain of Protein-tyrosine kinase 6 (Homo sapiens) (Q13882 whole entry, looked up): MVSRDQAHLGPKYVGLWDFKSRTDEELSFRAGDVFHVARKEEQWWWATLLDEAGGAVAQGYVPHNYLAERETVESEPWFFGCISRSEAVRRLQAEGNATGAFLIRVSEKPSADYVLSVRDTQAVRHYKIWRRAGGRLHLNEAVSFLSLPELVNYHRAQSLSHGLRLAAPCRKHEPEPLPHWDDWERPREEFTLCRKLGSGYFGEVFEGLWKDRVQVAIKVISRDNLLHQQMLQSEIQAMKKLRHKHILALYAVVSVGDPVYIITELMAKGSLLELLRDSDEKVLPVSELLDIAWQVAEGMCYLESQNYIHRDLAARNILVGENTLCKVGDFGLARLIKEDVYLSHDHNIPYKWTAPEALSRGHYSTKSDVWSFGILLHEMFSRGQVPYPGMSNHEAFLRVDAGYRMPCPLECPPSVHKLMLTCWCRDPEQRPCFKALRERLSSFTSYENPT
Chain of Ribosomal protein S6 kinase alpha-2 (Homo sapiens) (Q15349 whole entry): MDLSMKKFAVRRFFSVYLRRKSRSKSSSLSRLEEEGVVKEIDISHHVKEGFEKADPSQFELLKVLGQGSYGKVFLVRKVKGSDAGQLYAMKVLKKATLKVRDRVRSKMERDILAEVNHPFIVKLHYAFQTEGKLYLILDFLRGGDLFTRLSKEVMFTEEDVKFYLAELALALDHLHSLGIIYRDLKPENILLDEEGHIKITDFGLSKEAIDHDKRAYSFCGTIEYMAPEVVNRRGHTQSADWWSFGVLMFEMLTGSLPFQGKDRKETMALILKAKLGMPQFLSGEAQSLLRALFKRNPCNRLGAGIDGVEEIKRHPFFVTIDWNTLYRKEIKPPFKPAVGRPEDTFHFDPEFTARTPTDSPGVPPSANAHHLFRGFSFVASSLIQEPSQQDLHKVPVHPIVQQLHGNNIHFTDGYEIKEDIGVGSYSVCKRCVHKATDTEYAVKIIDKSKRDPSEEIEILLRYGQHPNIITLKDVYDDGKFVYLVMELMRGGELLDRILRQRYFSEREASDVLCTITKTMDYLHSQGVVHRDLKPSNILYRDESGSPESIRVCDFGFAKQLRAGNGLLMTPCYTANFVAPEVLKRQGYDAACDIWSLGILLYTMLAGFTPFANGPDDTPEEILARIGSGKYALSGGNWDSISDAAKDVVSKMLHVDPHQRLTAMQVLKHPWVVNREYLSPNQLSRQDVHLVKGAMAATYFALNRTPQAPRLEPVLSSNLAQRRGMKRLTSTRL
Chain of Tyrosine-protein kinase ABL1 (Homo sapiens), P00519 [E255K] (P00519 whole entry E255K): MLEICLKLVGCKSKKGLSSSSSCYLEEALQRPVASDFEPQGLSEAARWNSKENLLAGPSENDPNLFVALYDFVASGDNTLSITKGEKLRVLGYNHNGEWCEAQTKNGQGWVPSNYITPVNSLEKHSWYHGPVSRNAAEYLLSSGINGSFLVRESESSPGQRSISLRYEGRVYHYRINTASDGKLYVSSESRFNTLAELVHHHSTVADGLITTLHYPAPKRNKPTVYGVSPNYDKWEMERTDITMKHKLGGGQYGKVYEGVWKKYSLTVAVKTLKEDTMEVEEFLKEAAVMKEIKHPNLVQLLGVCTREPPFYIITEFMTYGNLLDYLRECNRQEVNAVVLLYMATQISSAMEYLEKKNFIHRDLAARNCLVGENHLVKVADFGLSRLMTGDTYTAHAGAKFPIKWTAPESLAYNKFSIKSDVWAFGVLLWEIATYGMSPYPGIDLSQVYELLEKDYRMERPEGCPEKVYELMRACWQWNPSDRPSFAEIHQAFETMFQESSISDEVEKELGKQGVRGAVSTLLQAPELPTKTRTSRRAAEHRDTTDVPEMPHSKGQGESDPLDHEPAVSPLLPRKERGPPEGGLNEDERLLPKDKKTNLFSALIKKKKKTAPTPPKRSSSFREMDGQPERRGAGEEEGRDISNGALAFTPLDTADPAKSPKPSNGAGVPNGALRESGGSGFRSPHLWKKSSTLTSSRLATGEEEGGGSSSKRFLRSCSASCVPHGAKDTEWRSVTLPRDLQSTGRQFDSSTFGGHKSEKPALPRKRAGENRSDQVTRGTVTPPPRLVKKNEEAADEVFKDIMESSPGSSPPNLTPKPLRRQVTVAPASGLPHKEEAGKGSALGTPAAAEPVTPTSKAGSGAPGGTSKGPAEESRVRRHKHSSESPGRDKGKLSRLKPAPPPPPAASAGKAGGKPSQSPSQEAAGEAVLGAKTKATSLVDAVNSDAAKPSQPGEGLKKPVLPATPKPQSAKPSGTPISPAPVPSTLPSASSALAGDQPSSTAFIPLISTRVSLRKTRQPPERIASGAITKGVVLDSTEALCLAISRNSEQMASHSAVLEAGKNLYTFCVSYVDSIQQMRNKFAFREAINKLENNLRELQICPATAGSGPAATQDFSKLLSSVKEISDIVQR
Chain of Tyrosine-protein kinase HCK (Homo sapiens) (P08631 2-526 limits assumed): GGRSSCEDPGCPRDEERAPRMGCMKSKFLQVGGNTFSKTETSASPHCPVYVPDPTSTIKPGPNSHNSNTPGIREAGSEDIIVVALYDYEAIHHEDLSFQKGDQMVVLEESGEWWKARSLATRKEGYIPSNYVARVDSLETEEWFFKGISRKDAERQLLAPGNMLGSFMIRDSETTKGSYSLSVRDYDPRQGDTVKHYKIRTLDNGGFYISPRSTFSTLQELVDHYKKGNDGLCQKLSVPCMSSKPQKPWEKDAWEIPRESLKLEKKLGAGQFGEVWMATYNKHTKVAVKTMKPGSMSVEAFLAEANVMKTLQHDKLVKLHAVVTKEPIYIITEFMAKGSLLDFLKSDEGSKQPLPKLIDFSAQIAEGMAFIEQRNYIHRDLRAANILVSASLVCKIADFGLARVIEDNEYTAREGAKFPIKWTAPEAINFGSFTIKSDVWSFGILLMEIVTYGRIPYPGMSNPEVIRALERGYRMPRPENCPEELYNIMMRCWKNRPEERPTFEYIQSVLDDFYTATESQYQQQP
Chain of Receptor tyrosine-protein kinase erbB-2 (Homo sapiens) (P04626 whole entry): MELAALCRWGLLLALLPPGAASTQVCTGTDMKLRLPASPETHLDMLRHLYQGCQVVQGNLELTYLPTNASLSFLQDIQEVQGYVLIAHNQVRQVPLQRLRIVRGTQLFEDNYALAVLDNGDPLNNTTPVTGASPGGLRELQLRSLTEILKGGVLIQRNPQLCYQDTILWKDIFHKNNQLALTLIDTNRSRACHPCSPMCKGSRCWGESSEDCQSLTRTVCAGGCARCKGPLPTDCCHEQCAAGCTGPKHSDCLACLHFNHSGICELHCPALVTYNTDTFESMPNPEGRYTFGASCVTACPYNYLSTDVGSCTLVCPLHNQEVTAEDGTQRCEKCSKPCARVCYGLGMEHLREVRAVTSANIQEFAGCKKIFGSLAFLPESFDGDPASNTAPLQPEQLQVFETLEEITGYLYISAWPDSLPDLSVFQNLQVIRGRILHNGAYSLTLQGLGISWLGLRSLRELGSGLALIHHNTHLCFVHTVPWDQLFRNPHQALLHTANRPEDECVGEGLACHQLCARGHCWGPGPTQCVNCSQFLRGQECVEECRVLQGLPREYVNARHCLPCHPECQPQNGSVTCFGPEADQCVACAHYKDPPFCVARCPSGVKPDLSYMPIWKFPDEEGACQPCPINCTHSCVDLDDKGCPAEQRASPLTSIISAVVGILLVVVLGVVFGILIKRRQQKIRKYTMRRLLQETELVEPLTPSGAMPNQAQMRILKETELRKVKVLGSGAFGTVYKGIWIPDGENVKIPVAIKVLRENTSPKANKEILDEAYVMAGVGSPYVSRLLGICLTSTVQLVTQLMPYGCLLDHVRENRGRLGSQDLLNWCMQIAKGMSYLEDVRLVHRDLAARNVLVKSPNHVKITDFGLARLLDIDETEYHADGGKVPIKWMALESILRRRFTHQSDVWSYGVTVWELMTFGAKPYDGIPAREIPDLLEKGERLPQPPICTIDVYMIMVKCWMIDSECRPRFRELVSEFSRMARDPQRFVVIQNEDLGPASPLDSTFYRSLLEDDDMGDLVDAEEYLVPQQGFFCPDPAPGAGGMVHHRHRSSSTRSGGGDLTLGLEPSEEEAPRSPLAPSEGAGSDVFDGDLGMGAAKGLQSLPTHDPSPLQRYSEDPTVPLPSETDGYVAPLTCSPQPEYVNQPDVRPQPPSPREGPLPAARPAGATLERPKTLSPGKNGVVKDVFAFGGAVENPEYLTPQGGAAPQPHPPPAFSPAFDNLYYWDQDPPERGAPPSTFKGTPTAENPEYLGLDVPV

## C[C@@H]1CN(c2cc(-c3n[nH]c4ccc(OC5(C)CC5)cc34)ncn2)C[C@H](C)O1 [MLi-2]
[1]
  inhibition: 0%
[2]
  inhibition: 4.43%
[3]
  inhibition: 3.46%
[4]
  inhibition: -2.46%
[5]
  inhibition: 7.67%
[6]
  inhibition: -4.42%
[7]
  inhibition: 2.74%
[8]
  inhibition: 7.53%
[9]
  inhibition: 6.15%
[10]; Compound concentration 0.01 uM
  inhibition: 6%
[10]; Compound concentration 0.1 uM
  inhibition: 0%
[10]; Compound concentration 1.0 uM
  inhibition: 10%
[10]; Compound concentration 10.0 uM
  inhibition: 62%
[11]
  Ki: 1190 nM
